1 substance from patent publication US6124431A, “Peptide derivatives” (Teikoku Hormone Mfg. Co., Ltd., priority 1993, dated 2000) can be followed below.

For this assay, the system named is mouse leukemia P388 cells. Nature of the assay: Assay of antitumor activity (increase in life span of mice implanted with P388 leukemia). In kind it is in vivo. To be noted: CDF1 mice, P388 cells implanted i.p.; compound i.p. on day 1 and day 5; observed for 60 days; ILS relative to dolastatin 10 = 100. As for the experimental part: (1) Assay of antitumor activity
0.1 ml (10^6 cells/mouse) portions of mouse leukemia P388 cells were implanted intraperitoneally into 7-week-old CDF1 mice. […] From the results were calculated increases in life span (ILS, %) according to the following equation. In the following equation, T means median survival days of the chemical administration group, and C means median survival days of the control group. [formula]
Antitumor activity is shown as the relative ratio in the case where the ILS of dolastatin 10 is supposed to be 100.

dolastatin 10: the “Antitumor activity (relative ratio of ILS, ILS of dolastatin 10 supposed to be 100)” value is 100.
